Results reported in patent publication EP4782453A1 (Beyang Therapeutics Co., Ltd., priority 2023, dated 2025).
Read-outs that look alike come from different tables or passages of the source.

Assays:
[1] = biological target: T1, Menin-MLL (Homo sapiens, UniProt O00255); assay: Inhibitory activity against Menin-MLL binding (fluorescence polarization); conditions: 150 nM His-Menin, 15 nM FITC-MLL, 25°C for 60 min
T1 construct: His-Menin (M1-L615 end); purchased BIORTUS BP9210
T1 sequence (O00255 1-615 isoform O00255-1): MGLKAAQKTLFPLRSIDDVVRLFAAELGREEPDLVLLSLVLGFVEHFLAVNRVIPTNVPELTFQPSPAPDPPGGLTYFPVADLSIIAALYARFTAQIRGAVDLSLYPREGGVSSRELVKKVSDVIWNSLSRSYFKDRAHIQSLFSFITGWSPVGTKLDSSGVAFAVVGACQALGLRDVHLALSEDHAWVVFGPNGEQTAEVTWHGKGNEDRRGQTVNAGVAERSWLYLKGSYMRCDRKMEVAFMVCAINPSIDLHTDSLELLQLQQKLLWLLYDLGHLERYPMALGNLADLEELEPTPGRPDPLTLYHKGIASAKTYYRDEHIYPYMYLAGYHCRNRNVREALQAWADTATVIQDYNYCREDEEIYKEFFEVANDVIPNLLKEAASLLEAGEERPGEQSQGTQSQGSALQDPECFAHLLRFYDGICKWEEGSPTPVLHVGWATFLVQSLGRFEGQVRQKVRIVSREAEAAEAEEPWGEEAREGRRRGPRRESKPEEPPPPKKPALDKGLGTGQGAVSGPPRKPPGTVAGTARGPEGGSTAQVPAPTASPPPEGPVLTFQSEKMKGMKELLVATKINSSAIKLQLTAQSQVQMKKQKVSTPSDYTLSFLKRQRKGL
Method in brief: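 His-Menin (M1-L615, 150 nM) preincubated with compound 15 min at 25 °C in HEPES pH 7.5, 50 mM NaCl, 1 mM DTT, 0.01% BSA, then 15 nM FITC-MLL4-43 peptide added for 60 min at 25 °C. Fluorescence polarization read; IC50 from 4-parameter logistic fit, duplicates.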

[2] = system: MV-4-11 (carrying MLL-AF4); assay: Inhibition of proliferation of human tumor cells (Alamar Blue, 7 days), MV-4-11; type: cell-based; conditions: Homo sapiens, MV4-11, 168 h, MV-4-11 cells (carrying MLL-AF4), method calls the value GI50
Description: Experimental Example 2: Evaluation of Inhibitory Activity of Compounds Against Proliferation of Human Tumor Cells
• Human acute lymphoblastic leukemia cells MV-4-11, purchased from American Type Culture Collection, Catalog Number: CRL-9591; • Human acute myeloid leukemia cells MOLM-13, purchased from COBIOER BIOSCIENCES CO., LTD, Catalog Number: CBP60678; • Human acute myeloid leukemia cells KG-1a, purchased from American Type Culture Collection, Catalog Number: CCL-246.1; • Inverted Microscope, purchased from Olympus Tokyo; • Countess™ Automated Cell Counter, purchased from Invitrogen, Model: C10281; and • Multilabel Reader, purchased from Bio-Tek, Model: Synergy HT.
MV-4-11 cells were cultured in an IMDM medium containing 10% fetal bovine serum, KG-a cells were cultured in an IMDM medium containing 20% fetal bovine serum, or MOLM-13 cells were cultured in an RPMI-1640 medium containing 20% fetal bovine serum, each supplemented with 100 U·mL^-1 penicillin and 100 µg·mL^-1 streptomycin. These cells were cultured at 37°C with 5% CO2. The suspensions of individual cell lines were prepared in their respective media and seeded into 96-well plates at a density of 4,000 cells/well for MV-4-11 and MOLM-13 cells, or 3,000 cells/well for KG-1a cells. On the day of the experiment, a compound stock solution was diluted in a 3-fold or 4-fold gradient using DMSO. Each gradient-diluted stock solution was then further diluted 250-fold with a complete medium to prepare a series of working solutions at different concentrations. Subsequently, 100 µL of working solution (containing a 2-fold concentration series of the test compound) was added to each well, with duplicate wells set up for each concentration.
Seven days after compound addition (on Day 7), an Alamar Blue assay reagent (MCE, HY-111391 / CS-0040317) was added to measure the fluorescence intensity in each well. Wells containing the cells in the growth medium supplemented with 0.1% DMSO (Day 7) served as high-read control wells. The readouts from the wells containing the cells in the growth medium supplemented with 0.1% DMSO on the day of compound addition (Day 0) served as low-reading control well. GraphPad Prism software was used to calculate the concentration required to inhibit 50% of cell proliferation (GI50), which serves as a cell proliferation inhibition activity index.

[3] = system: MOLM-13 (carrying MLL-AF9); assay: Inhibition of proliferation of human tumor cells (Alamar Blue, 7 days), MOLM-13; type: cell-based; conditions: Homo sapiens, MOLM-13 cells (carrying MLL-AF9), method calls the value GI50
Method in brief: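 Cells seeded at 4,000/well (MV-4-11, MOLM-13) or 3,000/well (KG-1a), treated in duplicate with serial compound dilutions for 7 days at 37°C, 5% CO2. Alamar Blue fluorescence read on Day 7, normalised to 0.1% DMSO Day-7 (high) and Day-0 (low) controls; GI50 derived.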

[4] = Menin-MLL IC50, fluorescence polarization
[5] = fluorescence polarization, read-out: Menin-MLL IC50

| SMILES | IC50 [1, 4] | IC50 [2] | IC50 ([3]; MOLM-13, 168 h) | IC50 [1, 5] | IC50 ([3]; 168 h) |
| --- | --- | --- | --- | --- | --- |
| CCS(=O)(=O)N[C@H]1CC[C@H](CN2CC[C@@H](c3cc(-c4ccc(F)cc4C(=O)N(CC(F)F)C(C)C)c4cnc(C)n4c3)C2)CC1 [Example 164, N-(2,2-difluoroethyl)-5-fluoro-2-{3-methyl-6-[(3S)-1-{[(1r,4r)-4-ethanesulfonamidocyclohexyl]methyl}pyrrolidin-3-yl]imidazo[1,5-a]pyridin-8-yl]-N-(isopropyl)benzamide] | 6 nM | 2.2 nM | 6.1 nM |  |  |
| Cc1nc(F)c2c(-c3ccc(F)cc3C(=O)N3[C@H](C)COC[C@H]3C)cc(C3CN(CC4CCN(C(=O)CC#N)CC4)C3)cn12 [Example 226] |  | 2.1 nM |  | 7.5 nM | 5.3 nM |
| CCCC(=O)N1CCC([C@H](C)N2CC(c3cc(-c4ccc(F)cc4C(=O)N4CCOC[C@H]4C)c4c(F)nc(C)n4c3)C2)CC1 [Example 294] |  | 4.9 nM |  | 9.5 nM | 46 nM |
| COCCN(C)C1CC(C(C(C)C)N2CC(c3cc(-c4ccc(F)cc4C(=O)N4CCOC[C@H]4C)c4cnn(C)c4c3)C2)C1 (stereo partly drawn) [Example 195, 3-{1-[3-(4-{4-fluoro-2-[(3R)-3-methylmorpholin-4-carbonyl]phenyl}-1-methyl-1H-indazol-6-yl)azacyclobutan-1-yl]-2-methylpropyl}-N-(2-methoxyethyl)-N-methylcyclobutan-1-amine] |  | 13 nM |  | 41 nM | 35 nM |
| Cc1nc(F)c2c(-c3ccc(F)cc3C(=O)N3CCOC[C@H]3C)cc(C3CN([C@@H](CC[C@H]4CNCCO4)C(C)C)C3)cn12 [Example 244-2, (3R)-4-[5-fluoro-2-(1-fluoro-3-methyl-6-{1-[(3S)-4-methyl-1-[(2S)-morpholin-2-yl]pentan-3-yl]azacyclobutan-3-yl}imidazo[1,5-a]pyridin-8yl)benzoyl]-3-methylmorpholine] |  | 54 nM |  | 34 nM | 130 nM |
| Cc1nc(F)c2c(-c3ccc(F)cc3C(=O)N3[C@H](C)COC[C@H]3C)cc(C3CN(CC4CCN(C(=O)C5CC5)CC4)C3)cn12 [Example 215] |  | 6.7 nM |  | 11 nM | 13 nM |
| Cc1nc(F)c2c(-c3ccc(F)cc3C(=O)N3CCOC[C@H]3C)cc(C3CN(C(CC[C@H]4CNCCO4)C(C)C)C3)cn12 (stereo partly drawn) [Example 244, (3R)-4-{5-fluoro-2-[1-fluoro-3-methyl-6-(1-{4-methyl-1-[(2S)-morpholin-2-yl]pentan-3-yl}azacyclobutan-3-yl)imidazo[1,5-a]pyridin-8yl]benzoyl}-3-methylmorpholine] |  | 13 nM |  | 17 nM | 64 nM |
| Cc1nc(F)c2c(-c3ccc(F)cc3C(=O)N3[C@H](C)COC[C@H]3C)cc(C3CN(CC4CCN(C(=O)C5COC5)CC4)C3)cn12 [Example 216] |  | 22 nM |  | 23 nM | 32 nM |
| CCS(=O)(=O)N[C@H]1CC[C@H](CN2CCC(c3cc(-c4ccc(F)cc4C(=O)N(CC(F)F)C(C)C)c4cnc(C)n4c3)CC2)CC1 [Example 128] | 37 nM | 56 nM | 30 nM |  |  |
| COC1CCN(CCC[C@H](C(C)C)N2CC(c3cc(-c4ccc(F)cc4C(=O)N4CCOC[C@H]4C)c4cnn(C)c4c3)C2)CC1 [Example 181-2, 4-{4-fluoro-2-[(3R)-3-methylmorpholin-4-carbonyl]phenyl}-6-{1-[(3R)-6-(4-methoxypiperidin-1-yl)-2-methylhexan-3-yl]azacyclobutan-3-yl}-1-methyl-1H-indazole] |  | 7.9 nM |  | 13.5 nM | 39 nM |
| CCNC(=O)N1CCC(C(C)N2CC(c3cc(-c4ccc(F)cc4C(=O)N(CC)C(C)C)c4cnc(C)n4c3)C2)CC1 (stereo not drawn) [Example 285] |  | 5.4 nM |  | 4 nM | 23 nM |
| Cc1ncc2c(-c3ccc(F)cc3C(=O)N3CCC[C@H]3C)cc(C3CN(C(C)C4CCOCC4)C3)cn12 (stereo partly drawn) [Example 190] |  | 25 nM |  | 29.5 nM | 40 nM |
| Cc1nc(F)c2c(-c3ccc(F)cc3C(=O)N3[C@H](C)COC[C@H]3C)cc(C3CN(CC4CCN(C(=O)CC(C)C)CC4)C3)cn12 [Example 218] |  | 6 nM |  | 13 nM | 11 nM |
| CCNC(=O)N1CCC(C(C)N2CC(c3cc(-c4ccc(F)cc4C(=O)N(CC)C(C)C)c4c(F)nc(C)n4c3)C2)CC1 (stereo not drawn) [Example 282, N-ethyl-4-{1-[3-(8-{2-[ethyl(isopropyl)aminoformyl]-4-fluorophenyl}-1-fluoro-3-methylimidazo[1,5-a]pyridin-6-yl)azacyclobutan-1-yl]ethyl}piperidin-1-formamide] |  | 5.4 nM |  | 4 nM | 25 nM |
| CC(=O)N1CCC(CN2CC(Cc3cc(-c4ccc(F)cc4C(=O)N(CC(F)F)C(C)C)c4cncc(C)n34)C2)CC1 [Example 210] |  | 7.1 nM |  | 3 nM | 41 nM |
| CO[C@H]1CCN([C@H]2C[C@@H](C(C(C)C)N3CC(c4cc(-c5ccc(F)cc5C(=O)N5CCOC[C@H]5C)c5cnn(C)c5c4)C3)C2)C1 (stereo partly drawn) [Example 196-2, 4-{4-fluoro-2-[(3R)-3-methylmorpholin-4-carbonyl]phenyl}-1-methyl-6-(1-{2-methyl-1-[(1s,3s)-3-[(3S)-3-methoxypyrrolidin-1-yl]cyclobutyl]propyl}azacyclobutan-3-yl)-1H-indazole] | 17 nM | 9.6 nM | 28 nM |  |  |
| CCN(C(=O)c1cc(F)ccc1-c1cc(C2CN(C[C@H]3CC[C@H](NS(=O)(=O)CC)CC3)C2)cn2c(C)ncc12)C(C)C [Example 120, N-ethyl-5-fluoro-2-[3-methyl-6-(1-{[(1r,4r)-4-ethanesulfonamidocyclohexyl]methyl}-azacyclobutan-3-yl)imidazo[1,5-a]pyridin-8-yl]-N-(isopropyl)benzamide] | 8.5 nM | 8.5 nM | 29.5 nM |  |  |
| C=C1C[C@@H]2CC[C@H]1[C@@H](C(=O)N1CC(c3cc(-c4ccc(F)cc4C(=O)N(CC(F)F)C(C)C)c4cnc(C)n4c3)C1)N2 [Example 121, N-(2,2-difluoroethyl)-5-fluoro-2-(3-methyl-6-{1-[(1S,3S,4R)-5-methylene-2-azabicyclo[2.2.2]octan-3-carbonyl]azacyclobutan-3-yl}imidazo[1,5-a]pyridin-8-yl)-N-(isopropyl)benzamide] |  | 42 nM |  | 23.5 nM | 128 nM |
| Cc1nc(F)c2c(-c3ccc(F)cc3C(=O)N3CCOC[C@H]3C)cc(C3CN(CC4CCN(C(=O)CC(C)C)CC4)C3)cn12 [Example 271] |  | 12 nM |  | 27 nM | 33 nM |
| Cc1nc(F)c2c(-c3ccc(F)cc3C(=O)N3[C@H](C)COC[C@H]3C)cc(C3CN(CC4CCN(C(=O)N5CC(F)(F)C5)CC4)C3)cn12 [Example 242] |  | 5.9 nM |  | 9.5 nM | 28 nM |
